# Assay results reported in ChEMBL document CHEMBL1909046, “DrugMatrix in vitro pharmacology data”.
# What was measured:
# [1] = target: Receptor tyrosine-protein kinase erbB-2 (Homo sapiens, UniProt P04626); test: biochemical; assay type: cell-based, Insect cells;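 also: inhibition of HER2 kinase enzyme activity, measured with Poly(Glu:Tyr) as the phosphorylation substrate; in other assays of this panel Not Active means under 50% inhibition at 10 µM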
# [2] = DRUGMATRIX: Sigma2 radioligand binding (ligand: [3H] Ifenprodil); assay type: cell membranes, Rattus norvegicus, Wistar, Brain, Membrane; conditions: Not Active = under 50% inhibition at 10 µM
# [3] = target: T1, Alpha-1A adrenergic receptor (Rattus norvegicus, UniProt P43140); test: DRUGMATRIX: Alpha-1A adrenergic receptor radioligand binding (ligand: prazosin); assay type: cell membranes, Wistar, Submaxillary gland, Membrane; conditions: Not Active = under 50% inhibition at 10 µM
# T1 sequence (P43140 whole entry): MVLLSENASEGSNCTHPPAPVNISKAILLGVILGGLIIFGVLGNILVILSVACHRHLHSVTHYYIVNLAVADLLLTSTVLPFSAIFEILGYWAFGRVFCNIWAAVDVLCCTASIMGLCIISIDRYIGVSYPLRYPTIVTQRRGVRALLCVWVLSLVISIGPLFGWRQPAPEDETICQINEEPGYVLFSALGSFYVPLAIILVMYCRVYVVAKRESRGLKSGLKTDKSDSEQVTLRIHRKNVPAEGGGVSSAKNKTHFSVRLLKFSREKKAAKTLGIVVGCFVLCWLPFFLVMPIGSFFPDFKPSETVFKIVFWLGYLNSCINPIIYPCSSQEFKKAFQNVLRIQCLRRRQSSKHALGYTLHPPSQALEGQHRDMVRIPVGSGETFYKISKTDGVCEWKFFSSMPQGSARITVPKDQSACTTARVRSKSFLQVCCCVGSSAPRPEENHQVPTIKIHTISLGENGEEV
# Interstitial collagenase = target: T2, Interstitial collagenase (Homo sapiens, UniProt P03956); assay type: tissue-based, Rheumatoid synovial fibroblasts;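 also: MMP-1 enzyme inhibition assay using a peptide substrate; in other assays of this panel Not Active means under 50% inhibition at 10 µM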
# T2 sequence (P03956 whole entry): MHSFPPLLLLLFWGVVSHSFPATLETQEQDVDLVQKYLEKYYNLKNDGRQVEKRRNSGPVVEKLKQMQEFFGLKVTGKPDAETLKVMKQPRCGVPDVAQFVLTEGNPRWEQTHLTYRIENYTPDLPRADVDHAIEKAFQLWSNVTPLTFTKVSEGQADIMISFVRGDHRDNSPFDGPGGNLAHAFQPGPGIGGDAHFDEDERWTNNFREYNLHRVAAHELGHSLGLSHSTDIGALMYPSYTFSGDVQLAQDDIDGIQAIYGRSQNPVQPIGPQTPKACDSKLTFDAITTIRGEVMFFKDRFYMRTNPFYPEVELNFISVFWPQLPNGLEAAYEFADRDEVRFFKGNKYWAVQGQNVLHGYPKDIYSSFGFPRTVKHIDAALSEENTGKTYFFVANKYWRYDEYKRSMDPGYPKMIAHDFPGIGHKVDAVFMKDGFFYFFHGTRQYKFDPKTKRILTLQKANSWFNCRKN
# Cannabinoid receptor 1 = Cannabinoid receptor 1 (Homo sapiens, UniProt P21554); assay type: cell membranes, Membrane; conditions: chem-1; also: in other assays of this panel Not Active means under 50% inhibition at 10 µM
# Sequence of Cannabinoid receptor 1 (P21554 whole entry): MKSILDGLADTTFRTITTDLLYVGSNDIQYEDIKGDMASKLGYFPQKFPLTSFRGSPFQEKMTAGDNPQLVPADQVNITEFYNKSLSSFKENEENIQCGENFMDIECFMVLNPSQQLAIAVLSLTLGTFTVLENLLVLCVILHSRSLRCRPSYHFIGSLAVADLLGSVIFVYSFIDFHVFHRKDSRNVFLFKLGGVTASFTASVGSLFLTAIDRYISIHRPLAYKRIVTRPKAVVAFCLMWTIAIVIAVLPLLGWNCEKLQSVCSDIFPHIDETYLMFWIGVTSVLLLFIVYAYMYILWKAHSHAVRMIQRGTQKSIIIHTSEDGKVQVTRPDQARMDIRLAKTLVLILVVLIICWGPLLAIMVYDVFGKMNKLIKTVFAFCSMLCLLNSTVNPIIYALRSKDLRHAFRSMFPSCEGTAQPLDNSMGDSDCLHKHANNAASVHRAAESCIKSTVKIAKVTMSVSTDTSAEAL
# [4] = target: 5-hydroxytryptamine receptor 2B (Homo sapiens, UniProt P41595); assay type: cell membranes, CHO-K1, Membrane; also: in other assays of this panel Not Active means under 50% inhibition at 10 µM
# Sequence of 5-hydroxytryptamine receptor 2B (P41595 whole entry): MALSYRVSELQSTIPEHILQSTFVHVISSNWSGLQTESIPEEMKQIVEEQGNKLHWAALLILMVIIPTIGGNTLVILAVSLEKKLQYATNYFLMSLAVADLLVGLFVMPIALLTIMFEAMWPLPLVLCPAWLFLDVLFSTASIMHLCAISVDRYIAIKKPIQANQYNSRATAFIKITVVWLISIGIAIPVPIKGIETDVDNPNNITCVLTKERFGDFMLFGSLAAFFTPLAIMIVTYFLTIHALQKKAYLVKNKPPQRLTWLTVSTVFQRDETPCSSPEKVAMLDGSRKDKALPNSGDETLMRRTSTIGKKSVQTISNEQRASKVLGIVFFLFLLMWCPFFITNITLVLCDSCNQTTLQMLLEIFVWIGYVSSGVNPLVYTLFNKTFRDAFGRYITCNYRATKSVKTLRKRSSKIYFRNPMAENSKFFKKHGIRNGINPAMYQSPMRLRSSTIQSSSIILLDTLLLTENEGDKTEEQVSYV
# [5] = target: C-C chemokine receptor type 2 (Homo sapiens, UniProt P41597); assay type: cell membranes, CHO-K1, Membrane; conditions: cho-k1; also: in other assays of this panel Not Active means under 50% inhibition at 10 µM
# Sequence of C-C chemokine receptor type 2 (P41597 whole entry): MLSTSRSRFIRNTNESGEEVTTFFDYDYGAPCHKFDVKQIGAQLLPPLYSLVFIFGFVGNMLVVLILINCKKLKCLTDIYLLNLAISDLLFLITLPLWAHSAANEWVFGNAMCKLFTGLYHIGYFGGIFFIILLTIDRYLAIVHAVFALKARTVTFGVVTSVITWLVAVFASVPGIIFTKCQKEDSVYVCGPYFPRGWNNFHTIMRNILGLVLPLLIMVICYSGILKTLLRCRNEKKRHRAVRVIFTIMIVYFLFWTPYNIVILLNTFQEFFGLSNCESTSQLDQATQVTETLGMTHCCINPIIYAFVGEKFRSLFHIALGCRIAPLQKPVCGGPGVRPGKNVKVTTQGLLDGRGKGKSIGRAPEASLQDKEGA
Compound,IC50 ([1]; insect cells),Ki ([1]; insect cells),IC50 [2],Ki [2],IC50 [3],Ki [3],IC50 (Interstitial collagenase),Ki (Interstitial collagenase),IC50 (Cannabinoid receptor 1),Ki (Cannabinoid receptor 1),IC50 ([4]; cho-k1),Ki ([4]; cho-k1),IC50 [5],Ki [5],IC50 ([1]; read-out: IC50) [nM],IC50 ([3]; read-out: IC50) [nM],Ki ([3]; read-out: Ki) [nM],IC50 ([4]; read-out: IC50) [nM],Ki ([4]; read-out: Ki) [nM]
STANNOUS FLUORIDE,Not Active,Not Active,Not Active,Not Active,Not Active,Not Active,Not Active,Not Active,Not Active,Not Active,Not Active,Not Active,Not Active,Not Active,,,,,
C[C@@H](O)[C@H]1C(=O)N2C(C(=O)O)=C(S[C@@H]3CN[C@H](C(=O)N(C)C)C3)[C@H](C)[C@H]12 [MEROPENEM],Not Active,,Not Active,Not Active,Not Active,,Not Active,,Not Active,,Not Active,,Not Active,,,,,,
COc1ncnc(NS(=O)(=O)c2ccc(N)cc2)c1OC [SULFADOXINE],Not Active,,Not Active,Not Active,Not Active,,Not Active,,Not Active,,Not Active,,Not Active,,,,,,
CCCc1nn(C)c2c(=O)[nH]c(-c3cc(S(=O)(=O)N4CCN(C)CC4)ccc3OCC)nc12,Not Active,,Not Active,Not Active,Not Active,,Not Active,,Not Active,,Not Active,,Not Active,,,,,,
COc1ccc(/C=C/C(=O)Nc2ccccc2C(=O)O)cc1OC,Not Active,,Not Active,Not Active,Not Active,,Not Active,,Not Active,,Not Active,,Not Active,,,,,,
CC1=C(CC(=O)O)c2cc(F)ccc2/C1=C\c1ccc(S(C)(=O)=O)cc1 [EXISULIND],Not Active,,Not Active,Not Active,Not Active,,Not Active,,Not Active,,Not Active,,Not Active,,,,,,
CN1C2CCCC1CC(NC(=O)c1nn(C)c3ccccc13)C2 (stereo not given) [GRANISETRON],Not Active,,,,Not Active,,Not Active,,Not Active,,Not Active,,Not Active,,,,,,
Cc1cn([C@H]2C[C@H](N=[N+]=[N-])[C@@H](CO)O2)c(=O)[nH]c1=O [ZIDOVUDINE],Not Active,,Not Active,Not Active,Not Active,,Not Active,,Not Active,,Not Active,,Not Active,,,,,,
OCCN1CCN(CCCN2c3ccccc3Sc3ccc(C(F)(F)F)cc32)CC1 [FLUPHENAZINE],,,,,,,Not Active,,Not Active,,,,Not Active,,19600,24,9.58,39,25
O=c1n(CCCN2CCN(c3cccc(Cl)c3)CC2)nc2ccccn12 [TRAZODONE],Not Active,,,,,,Not Active,,Not Active,,,,Not Active,,,117,47,,
CC(C)OC(=O)C(C)(C)Oc1ccc(C(=O)c2ccc(Cl)cc2)cc1 [FENOFIBRATE],Not Active,,,,Not Active,,Not Active,,Not Active,,Not Active,,Not Active,,,,,,
CCN(CC)CC#CCOC(=O)C(O)(c1ccccc1)C1CCCCC1 (stereo not given) [OXYBUTYNIN],Not Active,,,,Not Active,,Not Active,,Not Active,,,,Not Active,,,,,,
CC(=O)Nc1nnc(S(N)(=O)=O)s1 [ACETAZOLAMIDE],Not Active,,,,Not Active,,Not Active,,Not Active,,Not Active,,Not Active,,,,,,
CC[C@@H](CO)NC(=O)[C@@H]1C=C2c3cccc4c3c(cn4C)C[C@H]2N(C)C1 [METHYSERGIDE],Not Active,,,,Not Active,,Not Active,,Not Active,,,,Not Active,,,,,,
O=c1[nH]c2ccccc2n1CCCN1CCC(n2c(=O)[nH]c3cc(Cl)ccc32)CC1 [DOMPERIDONE],Not Active,,,,,,Not Active,,Not Active,,,,Not Active,,,285,116,,
